Columns and labels:
[1] = system: P. falciparum 3D7 trophozoites; assay: Metabolomic fingerprint profiling LC-MS; type: cell-based, Plasmodium falciparum; parameters: UDP-D-glucose / ADP-D-glucose: unit not given here
[2] = system: P. falciparum; assay: EC50 listed in S2 Table Metabolomics (used to set the concentration tested); type: cell-based; settings: Plasmodium falciparum; EC50 used for Factor_XEC50 in metabolomics; read-out: EC50_nM
[3] = metabolite level change after treatment

EC50 [2]: 139 nM
Structure (SMILES): COc1cccc(NC(=O)[C@H](C(C)C)n2c(=O)[nH]c3ccccc3c2=O)c1 [MMV665878]
Acetyllysine ([1]; S2 Table Metabolomics, metabolite Acetyllysine): -3.834
N-acetyl-L-ornithine ([1]; S2 Table Metabolomics, metabolite N-acetyl-L-ornithine): -2.277
N-carbamoyl-L-aspartate ([1]; S2 Table Metabolomics, metabolite N-carbamoyl-L-aspartate): -2.026
NADPH ([1]; S2 Table Metabolomics, metabolite NADPH): -0.665
dAMP ([1]; S2 Table Metabolomics, metabolite dAMP): 2.607
dCMP ([1]; S2 Table Metabolomics, metabolite dCMP): 1.538
dTDP ([1]; S2 Table Metabolomics, metabolite dTDP): 2.818
dTMP ([1]; S2 Table Metabolomics, metabolite dTMP): 4.246
dTTP ([1]; S2 Table Metabolomics, metabolite dTTP): 1.03
dihydroorotate ([1]; S2 Table Metabolomics, metabolite dihydroorotate): -1.926
orotate ([1]; S2 Table Metabolomics, metabolite orotate): 0.2146
DLH ([1]; S2 Table Metabolomics, peptide DLH): -4.819
DLS/SDL/SID ([1]; S2 Table Metabolomics, peptide DLS/SDL/SID): -3.927
PD ([1]; S2 Table Metabolomics, peptide PD): -1.32
PEE ([1]; S2 Table Metabolomics, peptide PEE): -2.783
PVNF ([1]; S2 Table Metabolomics, peptide PVNF): -5.1424
3-phosphoglycerate ([1]; metabolite 3-phosphoglycerate, S2 Table Metabolomics): -0.5747
ADP-D-glucose ([1]; metabolite ADP-D-glucose, S2 Table Metabolomics): -0.6055
ATP ([1]; metabolite ATP, S2 Table Metabolomics): -2.891
CDP ([1]; metabolite CDP, S2 Table Metabolomics, change in metabolite level after compound treatment): 0.1584
D-sedoheptulose-1/7-phosphate ([1]; metabolite D-sedoheptulose-1/7-phosphate, S2 Table Metabolomics, change in metabolite level after compound treatment): -0.5795
FAD ([1]; metabolite FAD, S2 Table Metabolomics): -1.328
GMP ([1]; metabolite GMP, S2 Table Metabolomics, change in metabolite level after compound treatment): -2.538
NAD+ ([1]; metabolite NAD+, S2 Table Metabolomics): 0.9896
NADP+ ([1]; metabolite NADP+, S2 Table Metabolomics): -0.2932
Octoluse Bisphosphate ([1]; metabolite Octoluse Bisphosphate, S2 Table Metabolomics, change in metabolite level after compound treatment): -2.487
Pyroglutamic acid ([1]; metabolite Pyroglutamic acid, S2 Table Metabolomics): -0.4358
UDP-D-glucose ([1]; metabolite UDP-D-glucose, S2 Table Metabolomics): -0.03487
UDP-D-glucuronate ([1]; metabolite UDP-D-glucuronate, S2 Table Metabolomics): -0.6105
UDP-N-acetyl-glucosamine ([1]; metabolite UDP-N-acetyl-glucosamine, S2 Table Metabolomics): 0.07778
UDP ([1]; metabolite UDP, S2 Table Metabolomics, change in metabolite level after compound treatment): -0.1367
UMP ([1]; metabolite UMP, S2 Table Metabolomics, change in metabolite level after compound treatment): 0.1216
UTP ([1]; metabolite UTP, S2 Table Metabolomics, change in metabolite level after compound treatment): -1.546
a-ketoglutarate ([1]; metabolite a-ketoglutarate, S2 Table Metabolomics): -0.5207
citrate/isocitrate ([1]; metabolite citrate/isocitrate, S2 Table Metabolomics, change in metabolite level after compound treatment): -1.159
cytidine ([1]; metabolite cytidine, S2 Table Metabolomics): 0.1724
dATP ([1]; metabolite dATP, S2 Table Metabolomics): -1.5606
dGMP/AMP ([1]; metabolite dGMP/AMP, S2 Table Metabolomics, change in metabolite level after compound treatment): -1.273
fumarate ([1]; metabolite fumarate, S2 Table Metabolomics, change in metabolite level after compound treatment): 0.3725
glucose-1/6-phosphate ([1]; metabolite glucose-1/6-phosphate, S2 Table Metabolomics, change in metabolite level after compound treatment): -0.9191
glycerate ([1]; metabolite glycerate, S2 Table Metabolomics, change in metabolite level after compound treatment): 0.3692
guanine ([1]; metabolite guanine, S2 Table Metabolomics, change in metabolite level after compound treatment): -0.09985
guanosine ([1]; metabolite guanosine, S2 Table Metabolomics, change in metabolite level after compound treatment): -0.2889
hypoxanthine ([1]; metabolite hypoxanthine, S2 Table Metabolomics): -0.3925
indole ([1]; metabolite indole, S2 Table Metabolomics): -0.3292
inosine ([1]; metabolite inosine, S2 Table Metabolomics, change in metabolite level after compound treatment): -0.04266
2_3-Diphosphoglyceric acid [1, 3]: -1.256
4-phosphopantothenate [1, 3]: -0.4545
6-phospho-D-gluconate [1, 3]: -0.4297
FMN [1, 3]: -0.3548
IMP [1, 3]: -0.5176
Pyrophosphate [1, 3]: -1.335
Sedoheptoluse bisphosphate [1, 3]: -0.9263
cyclic-AMP [1, 3]: -1.127
glutathione disulfide [1, 3]: -0.2446
lactate [1, 3]: -1.397
myo-inositol [1, 3]: -0.3766
nicotinate ([1]; metabolite nicotinate, S2 Table Metabolomics): 0.2929
ornithine ([1]; metabolite ornithine, S2 Table Metabolomics): 0.191
phosphoenolpyruvate ([1]; metabolite phosphoenolpyruvate, S2 Table Metabolomics): -0.242
pyruvate ([1]; metabolite pyruvate, S2 Table Metabolomics, change in metabolite level after compound treatment): -1.851
ribose-phosphate ([1]; metabolite ribose-phosphate, S2 Table Metabolomics): -0.6091
sarcosine/alanine ([1]; metabolite sarcosine/alanine, S2 Table Metabolomics, change in metabolite level after compound treatment): -1.666
sn-glycerol-3-phosphate ([1]; metabolite sn-glycerol-3-phosphate, S2 Table Metabolomics): 0.02823
succinate/methylmalonic acid ([1]; metabolite succinate/methylmalonic acid, S2 Table Metabolomics, change in metabolite level after compound treatment): 0.3592
uridine ([1]; metabolite uridine, S2 Table Metabolomics, change in metabolite level after compound treatment): 0.5173
xanthosine ([1]; metabolite xanthosine, S2 Table Metabolomics, change in metabolite level after compound treatment): -1.769

Reference: publication PMC4965013, “Open Source Drug Discovery with the Malaria Box Compound Collection for Neglected Diseases and Beyond” (PLoS Pathogens, 2016)
